# Measurements from patent US20260335279A1, “METHODS OF TREATING ISCHEMIA-REPERFUSION INJURIES” (University of Cincinnati, priority 2022, published 2026).
# What was measured:
# [1] = tested on: KLF5; settings: colorectal cancer cell lines; Bialkowska 2011; cited from earlier work
# [2] = tested on: KLF5 promoter; settings: colorectal cancer cell lines; Bialkowska 2011; cited from earlier work
# [3] = tested on: KLF5; settings: cited from earlier work
# [4] = tested on: reactive oxygen species in myocardium; assay: DHE staining of myocardium (superoxide detection, oxidative stress) after I/R; type: in vivo, mouse (C57BL/6); settings: 2 h reperfusion; apocynin 5 mg/kg/12 h or GLX351322 3.8 mg/kg/12 h, intraperitoneal, at early reperfusion
# Experimental: The myocardial ischemia/reperfusion surgical protocol was applied as follows. Mice were anesthetized with 2% isoflurane inhalation until anesthesia was achieved. The animals' body temperature was maintained at 37 °C throughout the surgical procedure using a heating pad. A tracheal tube was placed via tracheal intubation and the respiration rate was set at 150 strokes/min with a tidal volume of 200 μL, using Minivent ventilator for mice (Model 845, Harvard Apparatus). A 1.2 cm incision was made over the left chest. After retraction of the pectoral major and minor muscles, the fourth intercostal space was exposed. […] The left anterior descending coronary artery (LAD) was then located, sutured, and ligated at a site 3-4 mm distal to the origin of the artery under the left atrium using a 6-0 silk suture. The heart was allowed to stabilize for 15 min and right after, ischemia was induced by tightening the suture against a small piece of polyethylene tube. At the end of the 30-minute ischemia period, the ligature was released for the induction of reperfusion, and then the manual evacuation of air and closure of muscle and skin were performed. The mouse was then monitored during the recovery period, which was generally completed within 3 to 5 minutes. […]
# Live myocardium was isolated from mice at the time of euthanasia and stained with 20 μM dihydroethidium (DHE) for 30 min at room temperature. […] Individual nuclei were measured within each visual field using ImageJ software, and visual fields were averaged to measure mean fluorescence intensity for each mouse.
# In order to unravel the mechanisms of KLF5-mediated cardiotoxicity, oxidative stress levels were evaluated at early reperfusion. […] Given the fact that inflammation and diapedesis of immune cells are important hallmarks of the post-ischemia-reperfusion response, the mRNA levels of IL-1α, IL-1β, IL-6, IL-10, and TNFα in the ischemic myocardium upon ML264 treatment were evaluated at 2 hours of reperfusion (FIGS. 51-5M) and 24 hours of reperfusion (FIGS. 5N-5Q). […]
# [5] = tested on: NOX4; settings: cited from earlier work
# [6] = tested on: myocardial ischemia-reperfusion injury in mice; assay: Infarct size evaluation upon Evans Blue/TTC staining after myocardial I/R; type: in vivo, mouse (C57BL/6)
# Experimental: The myocardial ischemia/reperfusion surgical protocol was applied as follows. Mice were anesthetized with 2% isoflurane inhalation until anesthesia was achieved. The animals' body temperature was maintained at 37 °C throughout the surgical procedure using a heating pad. A tracheal tube was placed via tracheal intubation and the respiration rate was set at 150 strokes/min with a tidal volume of 200 μL, using Minivent ventilator for mice (Model 845, Harvard Apparatus). A 1.2 cm incision was made over the left chest. After retraction of the pectoral major and minor muscles, the fourth intercostal space was exposed. […] The left anterior descending coronary artery (LAD) was then located, sutured, and ligated at a site 3-4 mm distal to the origin of the artery under the left atrium using a 6-0 silk suture. The heart was allowed to stabilize for 15 min and right after, ischemia was induced by tightening the suture against a small piece of polyethylene tube. At the end of the 30-minute ischemia period, the ligature was released for the induction of reperfusion, and then the manual evacuation of air and closure of muscle and skin were performed. The mouse was then monitored during the recovery period, which was generally completed within 3 to 5 minutes. Sustain-released buprenorphine (BupSR, 0.5 mg/kg body weight) was provided by subcutaneous injection. Mice were then left to recover until the end of the reperfusion (2 hours, 12 hours, 24 hours, or 4 weeks). The sham group underwent the same surgical procedure except that the LAD was not occluded.
# Double staining of the heart with Evans Blue dye and Triphenyl-Tetrazolium Chloride (TTC) solution was employed for infarct size measurements. Mice were anesthetized upon 3% isoflurane inhalation. The thorax was cut and opened, and hearts were gently excised. Then, the aorta was cannulated and perfused with 5 mL of normal saline. The suture was re-tightened and Evans Blue solution (2.5% in WFI) was slowly infused through the aorta, to differentiate the ischemic part of the myocardium from the non-occluded, normally perfused area. The hearts were sliced into 1-2 mm sections immediately following. The heart slices were incubated with TTC solution (1% in PBS, pH=7.4) at 37 °C for 20 min. In this way, the necrotic area is delimited as a white area, while the viable tissue is stained red. […] The overall size of each slice (All/A), the area-at-risk (R), and the infarct area (I) were determined in a blinded manner for each slice using ImageJ software, and the percentages of Area at Risk (R/A) % and I/R % were calculated. […]
# Administration of these two compounds was performed 5 minutes before the reopening of the coronary artery and infarct size was assessed upon 30 minutes of ischemia followed by 24 hours of reperfusion therapy.
# [7] = apocynin 5 mg/kg/12 h or GLX351322 3.8 mg/kg/12 h, intraperitoneal, at early reperfusion, vs vehicle
smiles,measurement,setting,value
CC(C)(C)c1cc(C=C(C#N)C#N)cc(C(C)(C)C)c1O [AG17],KLF5 protein level,[1],reduce
same,KLF5 promoter activity,[2],reduce
CC(C)(C)c1cc(/C=C(\C#N)C(N)=S)cc(C(C)(C)C)c1O [AG879],inhibition of KLF5,[3],inhibit
CCOC(=O)c1c(NC(=O)CN2CCN(C(=O)c3ccco3)CC2)sc2c1CCC2 [GLX-351322],oxidative stress (DHE staining),[4],significant suppression
same,hydrogen peroxide production from NOX4-overexpressing cells,[5],inhibits
same,infarct size,[6]; [7],significant reduction
CC(C)(C)c1ccc(S(=O)(=O)NCc2ccc(C(=O)Nc3cccnc3)cc2)cc1 [STF-31],infarct size,"[6]; GLUT inhibitors 5 min before reopening of coronary artery, 30 min ischemia, 24 h reperfusion",not by STF-31 treatment
"COc1cc(C(C)=O)ccc1O [apocynin, acetovanillone]",oxidative stress (DHE staining),[4],significant suppression
same,infarct size,[6]; [7],significant reduction
